For the data set the following is noted: Liquid; for mass density: 298.15 K, 101.33 kPa.

Numbers after ± are expanded uncertainties.

Broadly, the mass density is mass per unit of volume. In the case of `CO` [methanol], the mass density came to 786.5 ± 0.3 kg/m3 and the Normal boiling temperature is 64.52 ± 0.03 °C.

For `CC(C)O` [propan-2-ol], the mass density stood at 780.8 ± 0.3 kg/m3 and the Normal boiling temperature stood at 82.26 ± 0.03 °C.

For `CCO` [ethanol], the mass density is listed as 785.1 ± 0.3 kg/m3 and the Normal boiling temperature was found to be 78.31 ± 0.03 °C.

Regarding `CCCO` [propan-1-ol], the mass density is on record as 799.5 ± 0.2 kg/m3 and the Normal boiling temperature amounted to 97.04 ± 0.03 °C.
